In patent US11884642B2, “Compounds useful as potassium channel openers” (ACOUSIA THERAPEUTICS GMBH, priority 2017, dated 2024):

System: guinea pigs
Experiment: Ototoxic drug-induced (kanamycin/furosemide) hearing loss model in vivo, CAP threshold recordings of the auditory nerve
Parameters: species or system guinea pig
Procedure: The inventive compounds were also tested in vivo. In this context, for repeated recording of the Compound Action Potential (CAP) of the auditory nerve, guinea pigs were bilaterally implanted with a permanent gold electrode at the round window niche. The round window is an opening from the middle ear into the inner ear. The gold electrodes were connected to a miniature plug on the skull. During the experiments, audiograms were determined between 0.5 and 45.6 kHz, at a resolution of 8 steps per octave. An automated threshold search algorithm was applied.
After a baseline audiogram was measured, the animals were pretreated with an inventive compound, as an ion channel activator, via local application to the middle ear. The corresponding solution of the inventive compound was removed after an exposure time, e. g. after 2 hours. Then, the middle ear was rinsed and dried out before CAP recordings were performed to assess threshold shifts.
Then, deafness was induced with the Guinea pigs by local application to the middle ear of a mixture of at least one ototoxic agent and at least one inventive compound. E. g. kanamycin, furosemide or mixtures of these compounds can be used as ototoxic agents.
The resulting CAP response thresholds were compared to ears which were exposed to the ototoxic agents alone.
All animals received care in accordance with the standards described by the German ‘Law on Protecting Animals’ (Tierschutzgesetz) and with the European Directive 2010/63/EU for the protection of animals used for experimental purposes. Experiments were approved by the local authorities (Application HN03/15).
All procedures were performed under anesthesia using a mixture of Fentanyl, Midazolam and Medetomidine. During surgery and measurements animals were kept on a 37° C. heating pad. For repeated recording of the Compound Action Potential (CAP) of the auditory nerve, guinea pigs were bilaterally implanted with a permanent gold electrode at the round window (RW) niche connected to a miniature plug on the skull. Audiograms were determined between 0.5 and 45.6 kHz, at a resolution of 8 steps per octave. An automated threshold search algorithm was applied.
After a baseline audiogram was measured, animals were pretreated with an ion channel activator, in this case with ACOU001, via local application to the middle ear. […]
The solution containing ACOU001 was removed after 2 hours and the middle ear rinsed and dried out before CAP recordings were performed to assess threshold shifts. […] After the final measurement on day 21, animals were sacrificed, cochleae fixed by perfusion with 4% paraformaldehyde and prepared for immunohistological analysis to quantify hair cell (HC) protection.

O=C(NCc1ccc(S(F)(F)(F)(F)F)cc1)c1ccc(Cl)s1 [ACOU001, 5-Chloro-N-(4-(pentafluorosulfanyl)benzyl)thiophene-2-carboxamide]
CAP curves (threshold levels) over time after co-treatment (7 and 21 days after kanamycin/furosemide plus compound): shifted to higher threshold levels after seven days but ameliorated after 21 days | reduction of hearing loss compared to the ototoxic drug alone (after 21 days, all frequencies, co-treatment with kanamycin/furosemide): 25-40 dB SPL | CAP-threshold loss after pretreatment (day 0, 2 hours local application to the middle ear, compared to baseline CAP-thresholds in untreated ears): small, most likely conductive, hearing loss | reduction of hearing loss compared to the ototoxic drug alone (day 0, mid to high frequencies (5-11 kHz), 100 μM with 200 mg/ml kanamycin, 50 mg/ml furosemide, local to middle ear): ~25 dB SPL
